Experimental data taken from patent US20250314636A1, “METHOD OF PREPARING AND EXPANDING A POPULATION OF IMMUNE CELLS FOR CANCER THERAPY, POTENCY ASSAY FOR TUMOR RECOGNITION, BIOLOGICAL VACCINE PREPARATION AND EPITOPETARGET FOR ANTIBODIES” (FUNDAÇÃO D. ANNA DE SOMMER CHAMPALIMAUD E DR. CARLOS MONTEZ …, priority 2022, published 2025).

What was measured:
TIL = assay: Peptide recognition assay in TIL (IFN-γ ELISA / IL-17 in supernatant, 7 days); type: cell-based, human; set-up: IFN-γ production, TIL: unit not given here; settings: for IFN-γ production, TIL: 10e4 TIL/well co-cultured with the peptide for 7 days, supernatant tested; for Pancreatic TIL D1599 IFN-y / Pancreatic TILD1599 IL 17: Pancreatic TIL D1599
Method: (§1) Peptides from tumor-associated antigens (TAAs), listed in Table 5 were placed at 1 ug/well in duplicates using anti-CD3 at 30 ng/mL as well as PHA at 5 μg/mL as positive controls.
(§2) The differences in TIL versus PBMCs can also be defined by peptide reactivity. 10e^4 TIL or 10e^4 PBMC/well were co-cultured with the peptides listed in Table 11 below for 7 days and the supernatants were tested for IFN-γ production.

PBMCs = assay: Peptide recognition assay in PBMCs (IFN-γ in supernatant, 7 days); type: cell-based, human; settings: 10e4 PBMC/well co-cultured with the peptide for 7 days, supernatant tested
Method: as §1, §2

Sequence	IFN-γ production, TIL (TIL)	IFN-γ production, PBMCs (PBMCs)	Pancreatic TIL D1599 IFN-y (TIL)	Pancreatic TILD1599 IL 17 (TIL)
ALACWGVRGSLLSEA	0	0	–	–
ALACWGVRGSLLSEA [Mesothelin MPF-12]	–	–	0 pg/mL	0 pg/mL
DILDTAGLEEYSAMR	0	0	–	–
DILDTAGLEEYSAMR [KRAS_Q61L]	–	–	24 pg/mL	0 pg/mL
ELNNALQNL	6	0	–	–
ELNNALQNL [ESAT6, reference compound]	–	–	0 pg/mL	0 pg/mL
FVAESAEVLLPRLVS	0	0	–	–
FVAESAEVLLPRLVS [Mesothelin MPF-14]	–	–	0 pg/mL	0 pg/mL
GIPFIETSAKTRQRVED [Kras_P14 (A146 WT)]	–	–	0 pg/mL	0 pg/mL
GIPFIETSTKTRQRVED	85	0	–	–
GIPFIETSTKTRQRVED [Kras_P15 (A146T)]	–	–	0 pg/mL	0 pg/mL
HRLSEPPEDLDALPL	0	0	–	–
HRLSEPPEDLDALPL [Mesothelin MPF-8]	–	–	0 pg/mL	0 pg/mL
IPFIETSVKTRQRVE [KRAS_A146V]	–	–	5 pg/mL	0 pg/mL
KLVVVGAGDVGKSALTI	0	0	–	–
KLVVVGAGDVGKSALTI [Kras_P9 (G13D)]	–	–	0 pg/mL	3 pg/mL
KLVVVGAGGVGKSALTI	0	0	–	–
KLVVVGAGGVGKSALTI [Kras_P8 (G13 WT)]	–	–	0 pg/mL	108 pg/mL
KLVVVGAVGVGKSAL	0	0	–	–
KLVVVGAVGVGKSAL [KRAS_G12F]	–	–	36 pg/mL	0 pg/mL
LAFQPPISNHPAPEY	0	0	–	–
LAFQPPISNHPAPEY [SMAD4 [D1 private peptide]]	–	–	0 pg/mL	0 pg/mL

Sequence	IFN-γ production, TIL (TIL)	IFN-γ production, PBMCs (PBMCs)	Pancreatic TIL D1599 IFN-y (TIL)	Pancreatic TILD1599 IL 17 (TIL)
LDILDTAGHEEYSAMRD	0	0	–	–
LDILDTAGHEEYSAMRD [Kras_P12 (Q61H)]	–	–	0 pg/mL	4 pg/mL
LDILDTAGKEEYSAMRD	0	0	–	–
LDILDTAGKEEYSAMRD [Kras_P11 (Q61K)]	–	–	0 pg/mL	0 pg/mL
LDILDTAGQEEYSAMRD	0	0	–	–
LDILDTAGQEEYSAMRD [Kras_P10 (Q61 WT)]	–	–	0 pg/mL	0 pg/mL
LDILDTAGREEYSAMRD	150	0	–	–
LDILDTAGREEYSAMRD [Kras_P13 (Q61R)]	–	–	0 pg/mL	0 pg/mL
LDVLYPKARLAFQNM	0	0	–	–
LDVLYPKARLAFQNM [Mesothelin GPI P14]	–	–	0 pg/mL	11 pg/mL
LLPRGAPERQRLLPA	0	0	–	–
LLPRGAPERQRLLPA [Mesothelin MPF-11]	–	–	0 pg/mL	0 pg/mL
LQGGIPNGYLVLDLS	0	0	–	–
LQGGIPNGYLVLDLS [Mesothelin GPI P40 (596-610)]	–	–	0 pg/mL	0 pg/mL
LVVVGAGAVGKSALT	0	0	–	–
LVVVGAGAVGKSALT [KRAS_G13A]	–	–	19 pg/mL	0 pg/mL
LVVVGAGCVGKSALT	0	0	–	–
LVVVGAGCVGKSALT [KRAS_G13C]	–	–	26 pg/mL	0 pg/mL
LVVVGAGRVGKSALT	0	0	–	–
LVVVGAGRVGKSALT [KRAS_G13R]	–	–	29 pg/mL	0 pg/mL
LVVVGAGSVGKSALT	0	0	–	–
